The target of the first assay is T1, ZIKV NS2B-NS3 protease (Zika virus, UniProt A0A024B7W1).
T1 construct: directed at the co-expressed ZIKV NS2B-NS3 protease
T1 sequence (A0A024B7W1 1503-1680): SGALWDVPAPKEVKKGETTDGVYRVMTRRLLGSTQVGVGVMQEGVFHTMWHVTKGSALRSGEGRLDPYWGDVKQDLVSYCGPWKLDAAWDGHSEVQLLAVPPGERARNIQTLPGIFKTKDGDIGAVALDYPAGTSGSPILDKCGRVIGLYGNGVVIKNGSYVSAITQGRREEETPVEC
T1 sequence (A0A024B7W1 1425-1464): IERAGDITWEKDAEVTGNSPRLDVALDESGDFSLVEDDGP
As to the kind of experiment: ZIKV NS2B-NS3 protease biochemical FRET assay. The following applies: Ligand efficiency = pKi / heavy atom count.
For `NCc1cccc(NC(=O)c2cc(Cl)cc(NC(=O)OCc3ccccc3)c2)c1` [ASAP-0016806], the “Ligand efficiency (LE)” value was found to be 0.259.

The assay is the same for the next values; noted with them: ZIKV NS2B-NS3 Ki.
Regarding `NCc1cccc(NC(=O)c2cc(Cl)cc(NC(=O)OCc3ccccc3)c2)c1` [ASAP-0016806], affinity was put at a Ki of 4.3 µM.

The assay is the same for the next values; noted with them: ZIKV NS2B-NS3 Ki (uM), library 1, supplement.
Turning to `NCc1ccc(NC(=O)c2cc(Cl)cc(NC(=O)OCc3ccccc3)c2)cc1` [ASAP-0017575, NCc1ccc(NC(=O)c2cc(Cl)cc(NC(=O)OCc3ccccc3)c2)cc1], the Ki (usually a measure of affinity in units of concentration, obtained from inhibition or displacement) turned out to be 9.23 µM. Same read-out and setting: for `NCc1nccc(NC(=O)c2cc(Cl)cc(NC(=O)OCc3ccccc3)c2)n1` [ASAP-0017603, NCc1nccc(NC(=O)c2cc(Cl)cc(NC(=O)OCc3ccccc3)c2)n1] the value was greater than 89.3 µM. Still for that read-out and setting: the value for `NC[C@H]1CC[C@H](NC(=O)c2cc(Cl)cc(NC(=O)OCc3ccccc3)c2)CC1` [ASAP-0017626, NC[C@H]1CC[C@H](NC(=O)c2cc(Cl)cc(NC(=O)OCc3ccccc3)c2)CC1] was greater than 89.3 µM; that for `O=C(Nc1cc(Cl)cc(C(=O)Nc2cccc(CC3CCNCC3)c2)c1)OCc1ccccc1` [ASAP-0017638, O=C(Nc1cc(Cl)cc(C(=O)Nc2cccc(CC3CCNCC3)c2)c1)OCc1ccccc1] was greater than 89.3 µM. `NCCc1cccc(NC(=O)c2cc(Cl)cc(NC(=O)OCc3ccccc3)c2)c1` [ASAP-0017670, NCCc1cccc(NC(=O)c2cc(Cl)cc(NC(=O)OCc3ccccc3)c2)c1] came in with a Ki of 3.51 µM.

In the case of `NC1(c2cccc(NC(=O)c3cc(Cl)cc(NC(=O)OCc4ccccc4)c3)c2)CCC1` [ASAP-0017671, NC1(c2cccc(NC(=O)c3cc(Cl)cc(NC(=O)OCc4ccccc4)c3)c2)CCC1], the Ki is greater than 89.3 µM. The same measure, in the same setting: the value for `CN(C(=O)c1cc(Cl)cc(NC(=O)OCc2ccccc2)c1)c1ccc(CN)cc1` [ASAP-0017677, CN(C(=O)c1cc(Cl)cc(NC(=O)OCc2ccccc2)c1)c1ccc(CN)cc1] was greater than 89.3 µM; that for `NCC1CCN(C(=O)c2cc(Cl)cc(NC(=O)OCc3ccccc3)c2)CC1` [ASAP-0017689, NCC1CCN(C(=O)c2cc(Cl)cc(NC(=O)OCc3ccccc3)c2)CC1] was 87.4 µM.

Consider `NCCc1ccc(NC(=O)c2cc(Cl)cc(NC(=O)OCc3ccccc3)c2)cc1` [ASAP-0017692, NCCc1ccc(NC(=O)c2cc(Cl)cc(NC(=O)OCc3ccccc3)c2)cc1], for which the Ki stood at 9.64 µM.

In the case of `NC1CCN(C(=O)c2cc(Cl)cc(NC(=O)OCc3ccccc3)c2)CC1` [ASAP-0017695, NC1CCN(C(=O)c2cc(Cl)cc(NC(=O)OCc3ccccc3)c2)CC1], the Ki was greater than 89.3 µM. Consider `O=C(Nc1cc(Cl)cc(C(=O)Nc2cccc(C3CCNCC3)c2)c1)OCc1ccccc1` [ASAP-0017708, O=C(Nc1cc(Cl)cc(C(=O)Nc2cccc(C3CCNCC3)c2)c1)OCc1ccccc1], for which the Ki worked out at 11.2 µM.

`NCCNC(=O)c1cc(Cl)cc(NC(=O)OCc2ccccc2)c1` [ASAP-0017736, NCCNC(=O)c1cc(Cl)cc(NC(=O)OCc2ccccc2)c1] had a Ki greater than 89.3 µM.

The compound `NC[C@H]1CC[C@H](CNC(=O)c2cc(Cl)cc(NC(=O)OCc3ccccc3)c2)CC1` [ASAP-0017744, NC[C@H]1CC[C@H](CNC(=O)c2cc(Cl)cc(NC(=O)OCc3ccccc3)c2)CC1] yielded a Ki of 23.1 µM. Same read-out and setting: for `CC(C)N1CCc2nc(NC(=O)c3cc(Cl)cc(NC(=O)OCc4ccccc4)c3)sc2C1` [ASAP-0020812, CC(C)N1CCc2nc(NC(=O)c3cc(Cl)cc(NC(=O)OCc4ccccc4)c3)sc2C1] the value was greater than 89.3 µM. Compound `CN(C)Cc1cc(NC(=O)c2cc(Cl)cc(NC(=O)OCc3ccccc3)c2)sn1` [ASAP-0020825, CN(C)Cc1cc(NC(=O)c2cc(Cl)cc(NC(=O)OCc3ccccc3)c2)sn1] had a Ki greater than 89.3 µM. Same read-out and setting: the value for `Cn1nc2c(c1NC(=O)c1cc(Cl)cc(NC(=O)OCc3ccccc3)c1)CNC2` [ASAP-0020883, Cn1nc2c(c1NC(=O)c1cc(Cl)cc(NC(=O)OCc3ccccc3)c1)CNC2] was greater than 89.3 µM; that for `CN1CCn2nc(NC(=O)c3cc(Cl)cc(NC(=O)OCc4ccccc4)c3)cc2C1` [ASAP-0020900, CN1CCn2nc(NC(=O)c3cc(Cl)cc(NC(=O)OCc4ccccc4)c3)cc2C1] was greater than 89.3 µM. Same read-out and setting: the value for `CN1CCc2nc(NC(=O)c3cc(Cl)cc(NC(=O)OCc4ccccc4)c3)sc2C1` [ASAP-0020935, CN1CCc2nc(NC(=O)c3cc(Cl)cc(NC(=O)OCc4ccccc4)c3)sc2C1] was greater than 89.3 µM. Still for that read-out and setting: for `O=C(Nc1cc(Cl)cc(C(=O)Nc2ncc3n2CCNC3)c1)OCc1ccccc1` [ASAP-0020975, O=C(Nc1cc(Cl)cc(C(=O)Nc2ncc3n2CCNC3)c1)OCc1ccccc1] the value was greater than 89.3 µM; for `O=C(Nc1cc(Cl)cc(C(=O)Nc2cc3n(n2)CCNC3)c1)OCc1ccccc1` [ASAP-0020976, O=C(Nc1cc(Cl)cc(C(=O)Nc2cc3n(n2)CCNC3)c1)OCc1ccccc1], greater than 89.3 µM. As to `O=C(Nc1cc(Cl)cc(C(=O)Nc2cnc3n2CCNC3)c1)OCc1ccccc1` [ASAP-0021001, O=C(Nc1cc(Cl)cc(C(=O)Nc2cnc3n2CCNC3)c1)OCc1ccccc1], the Ki was greater than 89.3 µM. The same measure, in the same setting: the value for `O=C(Nc1cc(Cl)cc(C(=O)Nc2nc3c(s2)CNC3)c1)OCc1ccccc1` [ASAP-0021026, O=C(Nc1cc(Cl)cc(C(=O)Nc2nc3c(s2)CNC3)c1)OCc1ccccc1] was 76.9 µM; that for `O=C(Nc1cc(Cl)cc(C(=O)Nc2n[nH]c3c2CNC32CC2)c1)OCc1ccccc1` [ASAP-0021028, O=C(Nc1cc(Cl)cc(C(=O)Nc2n[nH]c3c2CNC32CC2)c1)OCc1ccccc1] was greater than 89.3 µM.

For the compound `O=C(Nc1cc(Cl)cc(C(=O)Nc2nc3c(s2)CCNC3)c1)OCc1ccccc1` [ASAP-0021029, O=C(Nc1cc(Cl)cc(C(=O)Nc2nc3c(s2)CCNC3)c1)OCc1ccccc1], affinity was put at a Ki of 48 µM.

`Cn1nc(NC(=O)c2cc(Cl)cc(NC(=O)OCc3ccccc3)c2)c2c1CNC2` [ASAP-0021036, Cn1nc(NC(=O)c2cc(Cl)cc(NC(=O)OCc3ccccc3)c2)c2c1CNC2] had a Ki greater than 89.3 µM.

Consider `O=C(Nc1cc(Cl)cc(C(=O)Nc2n[nH]c3c2CNC3)c1)OCc1ccccc1` [ASAP-0021061, O=C(Nc1cc(Cl)cc(C(=O)Nc2n[nH]c3c2CNC3)c1)OCc1ccccc1], for which the affinity corresponds to a Ki of 36.1 µM. `NCc1cn(CCNC(=O)c2cc(Cl)cc(NC(=O)OCc3ccccc3)c2)nn1` [ASAP-0021085, NCc1cn(CCNC(=O)c2cc(Cl)cc(NC(=O)OCc3ccccc3)c2)nn1]: the Ki is greater than 89.3 µM.

In turn, `C[C@H](N)c1cccc(NC(=O)c2cc(Cl)cc(NC(=O)OCc3ccccc3)c2)c1` [ASAP-0021091, C[C@H](N)c1cccc(NC(=O)c2cc(Cl)cc(NC(=O)OCc3ccccc3)c2)c1] yielded a Ki of 12.3 µM. Same read-out and setting: the value for `O=C(Nc1cc(Cl)cc(C(=O)NCC2(CO)CCNCC2)c1)OCc1ccccc1` [ASAP-0021096, O=C(Nc1cc(Cl)cc(C(=O)NCC2(CO)CCNCC2)c1)OCc1ccccc1] was greater than 89.3 µM; that for `NCc1nc(CNC(=O)c2cc(Cl)cc(NC(=O)OCc3ccccc3)c2)cs1` [ASAP-0021116, NCc1nc(CNC(=O)c2cc(Cl)cc(NC(=O)OCc3ccccc3)c2)cs1] was greater than 89.3 µM. Same read-out and setting: the value for `Cc1c(CN)cccc1NC(=O)c1cc(Cl)cc(NC(=O)OCc2ccccc2)c1` [ASAP-0021118, Cc1c(CN)cccc1NC(=O)c1cc(Cl)cc(NC(=O)OCc2ccccc2)c1] was 40.1 µM; that for `Cc1ccc(NC(=O)c2cc(Cl)cc(NC(=O)OCc3ccccc3)c2)cc1CN` [ASAP-0021119, Cc1ccc(NC(=O)c2cc(Cl)cc(NC(=O)OCc3ccccc3)c2)cc1CN] was 9.81 µM. The same measure, in the same setting: for `NC12CCC(CNC(=O)c3cc(Cl)cc(NC(=O)OCc4ccccc4)c3)(CC1)OC2` [ASAP-0021132, NC12CCC(CNC(=O)c3cc(Cl)cc(NC(=O)OCc4ccccc4)c3)(CC1)OC2] the value was 29.7 µM. `NCc1ccc(O)c(NC(=O)c2cc(Cl)cc(NC(=O)OCc3ccccc3)c2)c1` [ASAP-0021142, NCc1ccc(O)c(NC(=O)c2cc(Cl)cc(NC(=O)OCc3ccccc3)c2)c1] gave a Ki of 16.3 µM.

Turning to `NCCc1nsc(NC(=O)c2cc(Cl)cc(NC(=O)OCc3ccccc3)c2)n1` [ASAP-0021153, NCCc1nsc(NC(=O)c2cc(Cl)cc(NC(=O)OCc3ccccc3)c2)n1], the Ki is greater than 89.3 µM. The same measure, in the same setting: for `Cn1nc(CCN)nc1NC(=O)c1cc(Cl)cc(NC(=O)OCc2ccccc2)c1` [ASAP-0021177, Cn1nc(CCN)nc1NC(=O)c1cc(Cl)cc(NC(=O)OCc2ccccc2)c1] the value was 28.1 µM. Still for that read-out and setting: for `O=C(Nc1cc(Cl)cc(C(=O)Nc2cccc3c2CNC3)c1)OCc1ccccc1` [ASAP-0021189, O=C(Nc1cc(Cl)cc(C(=O)Nc2cccc3c2CNC3)c1)OCc1ccccc1] the value was 67.8 µM; for `Cc1cc(CN)cc(NC(=O)c2cc(Cl)cc(NC(=O)OCc3ccccc3)c2)c1` [ASAP-0021201, Cc1cc(CN)cc(NC(=O)c2cc(Cl)cc(NC(=O)OCc3ccccc3)c2)c1], 4.63 µM; for `NCCCc1ccnc(NC(=O)c2cc(Cl)cc(NC(=O)OCc3ccccc3)c2)c1` [ASAP-0021210, NCCCc1ccnc(NC(=O)c2cc(Cl)cc(NC(=O)OCc3ccccc3)c2)c1], 16.5 µM.

In turn, `CN(C)Cc1csc(NC(=O)c2cc(Cl)cc(NC(=O)OCc3ccccc3)c2)n1` [ASAP-0021243, CN(C)Cc1csc(NC(=O)c2cc(Cl)cc(NC(=O)OCc3ccccc3)c2)n1] registered a Ki greater than 89.3 µM. On the same count and under the same terms, the value for `O=C(Nc1cc(Cl)cc(C(=O)NCc2n[nH]c3c2CNCC3)c1)OCc1ccccc1` [ASAP-0021271, O=C(Nc1cc(Cl)cc(C(=O)NCc2n[nH]c3c2CNCC3)c1)OCc1ccccc1] was greater than 89.3 µM; that for `Cn1nc2c(c1NC(=O)c1cc(Cl)cc(NC(=O)OCc3ccccc3)c1)CNCC2` [ASAP-0021291, Cn1nc2c(c1NC(=O)c1cc(Cl)cc(NC(=O)OCc3ccccc3)c1)CNCC2] was 19.7 µM.

Still in this assay, the particulars now being: ZIKV NS2B-NS3 pKi, library 1, supplement.
The compound `NCCCc1cccc(NC(=O)c2cc(Cl)cc(NC(=O)OCc3ccccc3)c2)n1` [ASAP-0021169, NCCCc1cccc(NC(=O)c2cc(Cl)cc(NC(=O)OCc3ccccc3)c2)n1] showed a Ki of 17 µM.

The same assay, now with this note: library 1, supplement.
In the case of `C[C@@H](N)c1ccc(NC(=O)c2cc(Cl)cc(NC(=O)OCc3ccccc3)c2)cc1` [ASAP-0017733, C[C@@H](N)c1ccc(NC(=O)c2cc(Cl)cc(NC(=O)OCc3ccccc3)c2)cc1 ¦&1:1¦], the “ZIKV NS2B-NS3 pKi” value is 4.88.

The assay is the same for the next values; noted with them: library 1, supplement; read-out: ZIKV NS2B-NS3 Ki.
Turning to `C[C@@H](N)c1ccc(NC(=O)c2cc(Cl)cc(NC(=O)OCc3ccccc3)c2)cc1` [ASAP-0017733, C[C@@H](N)c1ccc(NC(=O)c2cc(Cl)cc(NC(=O)OCc3ccccc3)c2)cc1 ¦&1:1¦], the Ki was 13.1 µM.

Still in this assay, the particulars now being: read-out: inhibition in biochemical assay.
Turning to `CN(C)Cc1ccc(C(=O)Nc2cc(Cl)cc(C(=O)NC(C)(C)CO)c2)[nH]1` [ASAP-0015373], the inhibition – broadly, the relative decrease from the control value, in per cent – at 100 µM was determined as 30%.

The values above are taken from article doi:10.1101/2025.06.19.660642, “Discovery of orally bioavailable Zika and West Nile Virus antiviral compounds targeting the NS2B-NS3 protease” (bioRxiv, 2025).
